ChEMBL document CHEMBL1134487, “Design, synthesis, and biological evaluation of analogues of the antitumor agent, 2-(4-[(7-chloro-2-quinoxalinyl)oxy]phenoxy)propionic acid (XK469)” (2001)

Columns and labels:
[1] = test system: Mus musculus; test: Cytotoxicity against iv transplanted AML1498 tumors of mouse origin, activity expressed as %ILS at the dose of 165 mg/kg, iv; assay type: functional
[2] = test system: Mus musculus; test: Cytotoxicity against sc transplanted Panc-03 tumors of mouse origin, activity expressed as cures at the dose of 328 mg/kg, po; 4/6 cures; assay type: functional
[3] = test system: Mus musculus; test: Cytotoxicity against sc transplanted B-16 melanoma tumors of mouse origin, activity expressed as cures at the dose of 300 mg/kg, iv; 0/5 cures; assay type: functional
[4] = test system: Mus musculus; test: In vivo activity tested against C3H mice bearing mammary adenocarcinoma -17/ADR tumor measured as log Kill value was based on tumors that grew at 620 mg/kg (po); assay type: functional, organism-based; parameters: dose 620 mg/kg
[5] = test system: Mus musculus; test: In vivo activity tested against C3H mice bearing panc-03 murine tumor measured as activity rating at 328 mg/kg (po); assay type: functional
[6] = test system: Mus musculus; test: Cytotoxicity against sc transplanted Panc-03 tumors of mouse origin, activity expressed as %T/C at the dose of 328 mg/kg, po; assay type: functional
[7] = test system: Mus musculus; test: Cytotoxicity against iv transplanted AML1498 tumors of mouse origin, activity expressed as %body wt. loss at the dose of 165 mg/kg, iv; assay type: functional
[8] = test system: Mus musculus; test: Cytotoxicity against sc transplanted B-16 melanoma tumors of mouse origin, activity expressed as log10 Kill at the dose of 300 mg/kg, iv; assay type: functional, organism-based; parameters: dose 300 mg/kg
[9] = test system: Mus musculus; test: Cytotoxicity against sc transplanted Mam-16/C/Adr tumors of mouse origin, activity expressed as %body wt. loss at the dose of 400 mg/kg, iv; assay type: functional
[10] = test system: Mus musculus; test: In vivo activity tested against C3H mice bearing mammary adenocarcinoma -17/ADR tumor measured as % treated/control calculated at 620 mg/kg (po); assay type: functional
[11] = test system: Mus musculus; test: Cytotoxicity against iv transplanted L1210 tumors of mouse origin, activity expressed as %body wt. loss at the dose of 300 mg/kg, iv; assay type: functional
[12] = test system: Mus musculus; test: Cytotoxicity against iv transplanted AML1498 tumors of mouse origin, activity expressed as cures at the dose of 165 mg/kg, iv; 0/5 cures; assay type: functional
[13] = test system: Mus musculus; test: Cytotoxicity against iv transplanted L1210 tumors of mouse origin, activity expressed as cures at the dose of 300 mg/kg, iv; 0/5 cures; assay type: functional
[14] = test system: Mus musculus; test: Cytotoxicity against sc transplanted DMS273 sm cell tumors of mouse and human origin, activity expressed as T/C(%) at the dose of 175 mg/kg, iv; assay type: functional
[15] = test system: Mus musculus; test: Cytotoxicity against sc transplanted Mam-17/0 tumors of mouse origin, activity expressed as %body wt. loss at the dose of 620 mg/kg, iv; assay type: functional
[16] = test system: Mus musculus; test: In vivo activity tested against C3H mice bearing panc-03 murine tumor measured as log Kill value was based on tumors that grew at 328 mg/kg (po); assay type: functional, organism-based; parameters: dose 328 mg/kg
[17] = test system: Mus musculus; test: Cytotoxicity against sc transplanted Mam-16/C/Taxol tumors of mouse origin, activity expressed as %T/C at the dose of 480 mg/kg, iv; assay type: functional
[18] = test system: Mus musculus; test: Cytotoxicity against sc transplanted L1210 tumors of mouse origin, activity expressed as cures at the dose of 332 mg/kg, iv; 0/5 cures; assay type: functional
[19] = test system: Mus musculus; test: Cytotoxicity against sc transplanted B-16 melanoma tumors of mouse origin, activity expressed as %body wt. loss at the dose of 300 mg/kg, iv; assay type: functional
[20] = test system: Mus musculus; test: Cytotoxicity against sc transplanted colon-38 tumors of mouse origin, activity expressed as %body wt lose at the dose of 546 mg/kg, iv; assay type: functional
[21] = test system: Mus musculus; test: Cytotoxicity against transplanted Panc-02 tumors of mouse origin, activity expressed as cures at the dose of 600 mg/kg, iv; 0/6 cures; assay type: functional
[22] = test system: Mus musculus; test: Cytotoxicity against sc transplanted L1210 tumors of mouse origin, activity expressed as %body wt. loss at the dose of 332 mg/kg, iv; assay type: functional
[23] = test system: Mus musculus; test: In vivo activity tested against C3H mice bearing panc-03 murine tumor measured as% treated/control calculated at 328 mg/kg (po); assay type: functional
[24] = test system: Mus musculus; test: Cytotoxicity against sc transplanted L1210 tumors of mouse origin, activity expressed as T/C(%) at the dose of 332 mg/kg, iv; assay type: functional
[25] = test system: Mus musculus; test: Cytotoxicity against sc transplanted L1210 tumors of mouse origin, activity expressed as log10 Kill at the dose of 332 mg/kg, iv; assay type: functional, organism-based; parameters: dose 332 mg/kg
[26] = test system: Mus musculus; test: Cytotoxicity against iv transplanted L1210 tumors of mouse origin, activity expressed as %ILS at the dose of 300 mg/kg, iv; assay type: functional
[27] = test system: Mus musculus; test: Cytotoxicity against sc transplanted Mam-16/C/Taxol tumors of mouse origin, activity expressed as cures at the dose of 480 mg/kg, iv; 0/5 cures; assay type: functional
[28] = test system: Mus musculus; test: Cytotoxicity against sc transplanted DMS273 sm cell tumors of mouse and human origin, activity expressed as %body wt. loss at the dose of 175 mg/kg, iv; assay type: functional
[29] = test system: Mus musculus; test: Cytotoxicity against sc transplanted Mam-17/Adr tumors of mouse origin, activity expressed as %body wt. loss at the dose of 620 mg/kg, iv; assay type: functional

Compound: CC(Oc1ccc(Oc2cnc3ccc(Cl)cc3n2)cc1)C(=O)O (centres undefined)
- ILS at 165 mg/kg [1]: 30%
- Cures [2]: 4
- Cures [3]: 0
- Log kill [4]: 3.9
- Activity rating [5]: >2.8
- T/C [6]: 0%
- Body weight loss [7]: -7%
- Log kill [8]: 2.6
- Body weight loss [9]: -9%
- T/C [10]: 2%
- Body weight loss [11]: -2%
- Cures [12]: 0
- Cures [13]: 0
- T/C [14]: 14%
- Body weight loss [15]: -12%
- Log kill [16]: 2.1
- T/C [17]: 14%
- Cures [18]: 0
- Body weight loss [19]: -11%
- Body weight loss [20]: -3.5%
- Cures [21]: 0
- Body weight loss [22]: -16%
- T/C [23]: 0%
- T/C [24]: 30%
- Log kill [25]: 0.8
- ILS at 300 mg/kg [26]: 160%
- Cures [27]: 0
- Body weight loss [28]: -8%
- Body weight loss [29]: -4%
